Results on four molecules are retold here after US20040023910A1, “Use of cyr61 in the treatment and diagnosis of human uterine leiomyomas” (priority 2003, published 2004).

Assay [1] has as its system Cyr61 transcript levels in myometrial tissue. Briefly: Ex vivo treatment of myometrial explants with sex steroids and growth factors, Cyr61 mRNA by Northern blotting. The format is cell-based, human. The text has this:
(§1) Study subjects and tissue procurement Uterine leiomyomas and matched myometrial specimens were obtained according to protocols approved by the Institutional Review Boards following routine hysterectomy at the Department of Obstetrics and Gynecology, Pennsylvania Hospital. Tissue samples were provided from patients between the ages of 38 to 53 (median age=45) who were not on hormone replacement therapy nor prescribed gonadotropin releasing hormone agonists (n=38). All but one patient had experienced normal menstrual cycles prior to surgery. Tissue specimens were immediately frozen in liquid nitrogen following hysterectomies for total RNA isolation or fixed in 10% neutral-buffered formalin for in situ hybridization. Tissues for ex vivo culturing were placed in phenol-red free DMEM/Ham's F12 media (Gibco BRL, Rockville, Md.) containing 100 U/ml penicillin, […], and 250 ng/ml amphotericine B as a fungizone and transported on ice.
Northern blotting for Cyr61 and ER a Total cellular RNA was isolated from myometrial and leiomyoma tissue homogenates by guanidium isothiocynate lysis followed by phenol/chloroform extraction. Subsequently, total cellular RNA (20 μg) was subjected to electrophoresis in a 1% agarose gel containing 1 M formaldehyde. Separated RNA transcripts were transferred onto nylon membranes by […] and subsequently prehybridized at 60° C. in RapidHyb hybridization solution (Amersham, Arlington Heights, Ill.). A 0.41 kb human Cyr61 cDNA fragment was radiolabeled with [α-^32P]-dCTP (3,000 Ci/mmol) using the random-primer technique (Rediprime II, Amersham) and used as the hybridization probe. The radiolabeled probe (1×10^6 cpm/ml) was hybridized to membranes for 4 h at 60° C. Membranes were washed twice in 1×SSPE (0.15 M NaCl, […], and 0.01 M sodium phosphate, pH 7.4) and 0.1% SDS for 15 min at 25° C., followed by a final wash in 0.1×SSPE and 0.1% SDS for 5 min at 60° C. For estrogen receptor α (ERα) expression, membranes were reprobed with a 1.96 kb human ERα cDNA (1.96 kb full length coding region) that was radiolabeled with [α-^32P]-dCTP (3,000 Ci/mmol), hybridized and washed as described above. Relative levels of Cyr61 were normalized to glyceraldehyde-3-phosphate dehydrogenase (GAPDH) after reprobing membranes with a ^32P-radiolabeled oligonucleotide according to manufacturers protocol (endlabeling kit, GibcoBRL, Rockville, Md.).
Tissue treatment with sex steroids and growth factors Tissue specimens obtained as described above were immediately minced into 1-2 mm pieces using sterilized scalpels and forceps and placed in phenol-red free DMEM/Ham's F12 containing antifingal and antibiotic agents only. […]

Assay [2] has as its system Cyr61 in leiomyoma tissues. Briefly: Ex vivo treatment of leiomyoma explants with sex steroids and growth factors, Cyr61 mRNA by Northern blotting. The format is cell-based, human. The note with it: leiomyoma explants ex vivo (n=8), 10 nM E2 or 10 ng/ml bFGF, 1 h.
Description: as §1
Northern blotting for Cyr61 and ER a Total cellular RNA was isolated from myometrial and leiomyoma tissue homogenates by guanidium isothiocynate lysis followed by phenol/chloroform extraction. Subsequently, total cellular RNA (20 μg) was subjected to electrophoresis in a 1% agarose gel containing 1 M formaldehyde. […]

For assay [3], the system named is Cyr61 in murine and human fibroblasts. The note with it: Nathans et al. 1988; cited from earlier work.

`C[C@]12CC[C@@H]3c4ccc(O)cc4CC[C@H]3[C@@H]1CC[C@@H]2O` [E2, 17β-estradiol]: the “increase in Cyr61 transcript levels” value in assay [1] (myometrial explants ex vivo (n=8), 1 h, 10 nM E2, 10 ng/ml bFGF or serum, normalized to GAPDH) is given as “greater than 2 fold”. In addition, the “upregulation of Cyr61 in leiomyoma tissues” value in assay [2] is “neither E2 nor bFGF was able to upregulate Cyr61”. For the molecule `C[C@]12CC[C@@H]3c4ccc(O)cc4C[C@@H](CCCCCCCCC[S+]([O-])CCCC(F)(F)C(F)(F)F)[C@H]3[C@@H]1CC[C@@H]2O` (stereo partly shown) [ICI 182,780], the “inhibition of E2 mediated induction of Cyr61” value in assay [1] (myometrial explants ex vivo, combination of 10 nM E2 and 1 μM ICI 182,780, 1 h) is on record as “completely inhibited”. In the case of `CCC(=O)[C@@]1(C)CC[C@H]2[C@@H]3CCC4=CC(=O)CCC4=C3CC[C@@]21C` [R5020], the “effect on Cyr61 expression” value in assay [1] (myometrial explants ex vivo, 10 nM R5020, 1 h) is given as “no effect on Cyr61 expression”. For the same molecule, the “synergy with E2 on Cyr61 expression” value in assay [1] (myometrial explants ex vivo, combination of 10 nM E2 and 10 nM R5020, 1 h) is “nor did it synergize with E2”. As to “bFGF: basic fibroblast growth factor, purchased from R & D Systems, Inc.”, the “upregulation of Cyr61 in leiomyoma tissues” value in assay [2] is given as “neither E2 nor bFGF was able to upregulate Cyr61”. Also, the “induction of Cyr61” value in assay [3] is “induces Cyr61”.
